Values quoted from earlier work as cited in EP4015634A1, “SIRNA AND COMPOSITIONS FOR PROPHYLACTIC AND THERAPEUTIC TREATMENT OF VIRUS DISEASES” (SYLENTIS, S.A.U., priority 2020, dated 2022).
*1 amine or outer side, *2 acyl side, *3 side chain or, on linkers, in order; H or OH if unused. Where a SMILES comes first, the peptide text is derived from it. Bridges are numbered along the chain shown (N, C = ends). [ ]: non-standard residue; d: D form. The star is where a group is joined. X1 = CC[C@H](C)[C@@H](N[*:1])[C@@H](O)CC(=O)O[C@H](C(=O)[C@H](C)C(=O)[*:2])C(C)C; NMeY = CN[C@@H](Cc1ccc(O)cc1)C(=O)O; dNMeL = CN[C@H](CC(C)C)C(=O)O; Pyruvoyl = CC(=O)C(=O)*

How the values were obtained:
[1] = system: patients with COVID-19; conditions: phase I
[2] = system: SARS-CoV-2; conditions: in vitro studies

In the case of `CC[C@H](C)[C@H]1NC(=O)[C@@H](NC(=O)[C@@H](CC(C)C)N(C)C(=O)[C@@H]2CCCN2C(=O)C(C)=O)[C@@H](C)OC(=O)[C@H](Cc2ccc(OC)cc2)N(C)C(=O)[C@@H]2CCCN2C(=O)[C@H](CC(C)C)NC(=O)[C@@H](C)C(=O)[C@H](C(C)C)OC(=O)C[C@@H]1O` [plitidepsin] (Pyruvoyl-P[dNMeL]T[X1]LP[NMeY](Me); ester 3-C), the primary safety endpoint ([1]; patients with COVID-19 who required hospitalization) is given as “met the primary safety endpoint”, the “preliminary secondary endpoints of efficacy” value ([1]; treated patients) is given as “substantial reduction in viral load and the C-reactive protein” and the “SARS-CoV-2 viral load in vitro” value [2] is given as “reduced SARS-CoV-2 viral load at nanomolar concentrations”.
